Source: patent US10722442B2, “Skin brightening composition comprising novel ginsenoside” (AMOREPACIFIC CORPORATION, priority 2018, dated 2020)

What was measured:
[1] = system: Mel-Ab cell line; test: Melanin production inhibition (Dooley's method); format: cell-based, C57BL/6; details: Mel-Ab cells, after 5 days, absorbance at 400 nm
[2] = target: Mushroom-derived tyrosinase; test: Inhibitory effect of tyrosinase activity; format: biochemical; details: L-tyrosine substrate, 20 minutes at 37° C., absorbance at 490 nm
Experimental: In order to compare the skin brightening effects of ginsenosides isolated from the ginseng seed extract, the inhibitory effect of the tyrosinase activity was evaluated as follows. Mushroom-derived tyrosinase and tyrosine were obtained from Sigma Chemical. […] Tyrosinase activity was assessed by measuring the absorbance at 490 nm using a microplate reader (Bio-Rad 3550, Richmond, Calif., U.S.A.) after an enzyme reaction for 20 minutes at 37° C.

## O=c1cc(CO)occ1O [Kojic acid, kojic acid]
[1]
  IC50 (ppm), concentration required to reduce melanin production in melanocytes by half: 39 ppm

## OC[C@H]1O[C@@H](Oc2ccc(O)cc2)[C@H](O)[C@@H](O)[C@@H]1O [Arbutin, arbutin]
[2]
  IC50 (ppm), inhibitory effect of tyrosinase activity: 149 ppm

## CC(C)=CCC[C@](C)(O)[C@H]1CC[C@]2(C)[C@@H]1[C@H](O)C[C@@H]1[C@@]3(C)CC[C@H](O)C(C)(C)[C@@H]3[C@@H](O[C@@H]3O[C@H](CO)[C@@H](O)[C@H](O)[C@H]3O[C@@H]3O[C@@H](C)[C@H](O)[C@@H](O)[C@H]3O)C[C@]12C [GS#02, ginsenoside Rg2]
[2]
  IC50 (ppm), inhibitory effect of tyrosinase activity: 30 ppm
[1]
  IC50 (ppm), concentration required to reduce melanin production in melanocytes by half: 35 ppm

## CC(C)=CCC[C@](C)(O[C@@H]1O[C@H](CO)[C@@H](O)[C@H](O)[C@H]1O)[C@H]1CC[C@]2(C)[C@@H]1[C@H](O)C[C@@H]1[C@@]3(C)CC[C@H](O[C@@H]4O[C@H](CO)[C@@H](O)[C@H](O)[C@H]4O[C@@H]4O[C@H](CO)[C@@H](O)[C@H](O)[C@H]4O)C(C)(C)[C@@H]3CC[C@]12C [GS#04, ginsenoside Rd]
[2]
  IC50 (ppm), inhibitory effect of tyrosinase activity: 31 ppm
[1]
  IC50 (ppm), concentration required to reduce melanin production in melanocytes by half: 38 ppm

## CC(C)=CCC[C@](C)(O[C@@H]1O[C@H](CO[C@@H]2O[C@H](CO)[C@@H](O)[C@H](O)[C@H]2O)[C@@H](O)[C@H](O)[C@H]1O)[C@H]1CC[C@]2(C)[C@@H]1[C@H](O)C[C@@H]1[C@@]3(C)CC[C@H](O[C@@H]4O[C@H](CO)[C@@H](O)[C@H](O)[C@H]4O[C@@H]4O[C@H](CO)[C@@H](O)[C@H](O)[C@H]4O)C(C)(C)[C@@H]3CC[C@]12C [GS#05, ginsenoside Rb1]
[2]
  IC50 (ppm), inhibitory effect of tyrosinase activity: 47 ppm
[1]
  IC50 (ppm), concentration required to reduce melanin production in melanocytes by half: 57 ppm

## CC(C)=CCC[C@](C)(O[C@@H]1O[C@H](CO[C@@H]2OC[C@H](O)[C@H](O)[C@H]2O)[C@@H](O)[C@H](O)[C@H]1O)[C@H]1CC[C@]2(C)[C@@H]1[C@H](O)C[C@@H]1[C@@]3(C)CC[C@H](O[C@@H]4O[C@H](CO)[C@@H](O)[C@H](O)[C@H]4O[C@@H]4O[C@H](CO)[C@@H](O)[C@H](O)[C@H]4O)C(C)(C)[C@@H]3CC[C@]12C [GS#06, ginsenoside Rb2]
[2]
  IC50 (ppm), inhibitory effect of tyrosinase activity: 53 ppm
[1]
  IC50 (ppm), concentration required to reduce melanin production in melanocytes by half: 54 ppm

## CC(C)=CCC[C@](C)(O[C@@H]1O[C@H](CO)[C@@H](O)[C@H](O)[C@H]1O)[C@H]1CC[C@]2(C)[C@@H]1[C@H](O)C[C@@H]1[C@@]3(C)CC[C@H](O)C(C)(C)[C@@H]3[C@@H](O[C@@H]3O[C@H](CO)[C@@H](O)[C@H](O)[C@H]3O[C@@H]3O[C@@H](C)[C@H](O)[C@@H](O)[C@H]3O)C[C@]12C [GS#03, ginsenoside Re]
[2]
  IC50 (ppm), inhibitory effect of tyrosinase activity: 27 ppm
[1]
  IC50 (ppm), concentration required to reduce melanin production in melanocytes by half: 39 ppm

## CC(C)=CCC[C@](C)(O[C@@H]1O[C@H](CO)[C@@H](O)[C@H](O)[C@H]1O)[C@H]1CC[C@]2(C)[C@@H]1[C@H](O)C[C@@H]1[C@@]3(C)CC[C@H](O)C(C)(C)[C@@H]3[C@@H](O[C@@H]3O[C@H](CO)[C@@H](O)[C@H](O)[C@H]3O)C[C@]12C [GS#01, ginsenoside Rg1]
[2]
  IC50 (ppm), inhibitory effect of tyrosinase activity: 23 ppm
[1]
  IC50 (ppm), concentration required to reduce melanin production in melanocytes by half: 37 ppm
